This passage reports melting point results from patent US6982348B2, “Aminoethanol derivatives” (Takeda Pharmaceutical Company Limited, priority 2001, dated 2006).

SMILES strings stand for the structures.

What is called melting point is the temperature, or range, at which the solid turns liquid. In turn, `O=Cc1ccccc1-c1ccc([C@H](O)[C@@H](Cc2cccc(OC(F)(F)C(F)F)c2)NC(=O)c2cccc3c2C=CCCC3)cc1` (racemic) [Example 301, N-[(1RS,2SR)-2-(2′-formyl[1,1′-biphenyl]-4-yl)-2-hydroxy-1-[3-(1,1,2,2-tetrafluoroethoxy)benzyl]ethyl]-6,7-dihydro-5H-benzo[a]cycloheptene-1-carboxamide] showed a melting point of 195 to 196 °C. Regarding `O=C(N[C@H](Cc1cccc(OC(F)(F)C(F)F)c1)[C@@H](O)c1ccc(-c2ccccc2CO)cc1)c1cccc2c1C=CCCC2` (racemic) [Example 302, N-[(1RS,2SR)-2-[2′-(hydroxymethyl)[1,1′-biphenyl]-4-yl]-2-hydroxy-1-[3-(1,1,2,2-tetrafluoroethoxy)benzyl]ethyl]-6,7-dihydro-5H-benzo[a]cycloheptene-1-carboxamide], the melting point fell in the range of 152 to 154 °C. Take `O=C(N[C@H](Cc1cccc(OC(F)(F)C(F)F)c1)[C@@H](O)c1ccc(-c2cccc(CO)c2)cc1)c1cccc2c1C=CCCC2` (racemic) [Example 303, N-[(1RS,2SR)-2-[3′-(hydroxymethyl)[1,1′-biphenyl]-4-yl]-2-hydroxy-1-[3-(1,1,2,2-tetrafluoroethoxy)benzyl]ethyl]-6,7-dihydro-5H-benzo[a]cycloheptene-1-carboxamide]: the melting point was 178 to 179 °C. As for `O=C(N[C@H](Cc1cccc(OC(F)(F)C(F)F)c1)[C@@H](O)c1ccc(-c2ccc(CO)cc2)cc1)c1cccc2c1C=CCCC2` (racemic) [Example 304, N-[(1RS,2SR)-2-[4′-(hydroxymethyl)[1,1′-biphenyl]-4-yl]-2-hydroxy-1-[3-(1,1,2,2-tetrafluoroethoxy)benzyl]ethyl]-6,7-dihydro-5H-benzo[a]cycloheptene-1-carboxamide], the melting point is 189 to 191 °C. With `CC1(C)CCC=Cc2c(C(=O)N[C@H](Cc3cccc(OC(F)(F)C(F)F)c3)[C@@H](O)c3ccc(F)cc3)cccc21` (racemic) [Example 305, N-[(1RS,2SR)-2-(4-fluorophenyl)-2-hydroxy-1-[3-(1,1,2,2-tetrafluoroethoxy)benzyl]ethyl]-5,5-dimethyl-6,7-dihydro-5H-benzo[a]cycloheptene-1-carboxamide], the melting point was 101 to 104 °C.

Take `COC(=O)c1ccc([C@@H](O)[C@H](Cc2cccc(OC(F)(F)C(F)F)c2)NC(=O)OC(C)(C)C)cc1` (racemic) [Example 308, methyl 4-[(1RS,2SR)-2-[(tert-butoxycarbonyl)amino]-1-hydroxy-3-[3-(1,1,2,2-tetrafluoroethoxy)phenyl]propyl]benzoate]: the melting point fell in the range of 148 to 150 °C.

`COC(=O)c1ccc([C@@H](O)[C@H](Cc2cccc(OC(F)(F)C(F)F)c2)NC(=O)c2cccc3c2C=CCCC3)cc1` (racemic) [Example 309, methyl 4-[(1RS,2SR)-2-[(6,7-dihydro-5H-benzo[a]cyclohepten-1-ylcarbonyl)amino]-1-hydroxy-3-[3-(1,1,2,2-tetrafluoroethoxy)phenyl]propyl]benzoate]: the melting point lay within 137 to 138 °C.

Take `O=C(O)c1ccc([C@@H](O)[C@H](Cc2cccc(OC(F)(F)C(F)F)c2)NC(=O)c2cccc3c2C=CCCC3)cc1` (racemic) [Example 310, 4-[(1RS,2SR)-2-[(6,7-dihydro-5H-benzo[a]cyclohepten-1-ylcarbonyl)amino]-1-hydroxy-3-[3-(1,1,2,2-tetrafluoroethoxy)phenyl]propyl]benzoic acid]: the melting point was in the range of 210 to 211 °C. The compound `NC(=O)c1ccc([C@H](O)[C@@H](Cc2cccc(OC(F)(F)C(F)F)c2)NC(=O)c2cccc3c2C=CCCC3)cc1` (racemic) [Example 311, N-[(1RS,2SR)-2-[4-(aminocarbonyl)phenyl]-2-hydroxy-1-[3-(1,1,2,2-tetrafluoroethoxy)benzyl]ethyl]-6,7-dihydro-5H-benzo[a]cycloheptene-1-carboxamide] returned a melting point of 197 to 199 °C. `CN(C)C(=O)c1ccc([C@H](O)[C@@H](Cc2cccc(OC(F)(F)C(F)F)c2)NC(=O)c2cccc3c2C=CCCC3)cc1` (racemic) [Example 312, N-[(1RS,2SR)-2-[4-[(dimethylamino)carbonyl]phenyl]-2-hydroxy-1-[3-(1,1,2,2-tetrafluoroethoxy)benzyl]ethyl]-6,7-dihydro-5H-benzo[a]cycloheptene-1-carboxamide] showed a melting point of 165 to 166 °C. As for `O=C(N[C@H](Cc1cccc(OC(F)(F)C(F)F)c1)[C@@H](O)c1ccc(C(=O)N2CCCCC2)cc1)c1cccc2c1C=CCCC2` (racemic) [Example 313, N-[(1RS,2SR)-2-hydroxy-2-[4-(piperidinocarbonyl)phenyl]-1-[3-(1,1,2,2-tetrafluoroethoxy)benzyl]ethyl]-6,7-dihydro-5H-benzo[a]cycloheptene-1-carboxamide], the melting point was 176 to 177 °C. Regarding `O=C(Nc1ccccc1)c1ccc([C@H](O)[C@@H](Cc2cccc(OC(F)(F)C(F)F)c2)NC(=O)c2cccc3c2C=CCCC3)cc1` (racemic) [Example 314, N-[(1RS,2SR)-2-[4-(anilinocarbonyl)phenyl]-2-hydroxy-1-[3-(1,1,2,2-tetrafluoroethoxy)benzyl]ethyl]-6,7-dihydro-5H-benzo[a]cycloheptene-1-carboxamide], the melting point was in the range of 205 to 206 °C. `CC(C)NC(=O)c1ccc([C@H](O)[C@@H](Cc2cccc(OC(F)(F)C(F)F)c2)NC(=O)c2cccc3c2C=CCCC3)cc1` (racemic) [Example 315, N-[(1RS,2SR)-2-hydroxy-2-[4-[(isopropylamino)carbonyl]phenyl]-1-[3-(1,1,2,2-tetrafluoroethoxy)benzyl]ethyl]-6,7-dihydro-5H-benzo[a]cycloheptene-1-carboxamide] came in with a melting point of 215 to 217 °C. `O=C(NCc1ccccc1)c1ccc([C@H](O)[C@@H](Cc2cccc(OC(F)(F)C(F)F)c2)NC(=O)c2cccc3c2C=CCCC3)cc1` (racemic) [Example 316, N-[(1RS,2SR)-2-[4-[(benzylamino)carbonyl]phenyl]-2-hydroxy-1-[3-(1,1,2,2-tetrafluoroethoxy)benzyl]ethyl]-6,7-dihydro-5H-benzo[a]cycloheptene-1-carboxamide] registered a melting point of 216 to 217 °C. With `CCCCNC(=O)c1ccc([C@H](O)[C@@H](Cc2cccc(OC(F)(F)C(F)F)c2)NC(=O)c2cccc3c2C=CCCC3)cc1` (racemic) [Example 317, N-[(1RS,2SR)-2-[4-[(butylamino)carbonyl]phenyl]-2-hydroxy-1-[3-(1,1,2,2-tetrafluoroethoxy)benzyl]ethyl]-6,7-dihydro-5H-benzo[a]cycloheptene-1-carboxamide] the figure was 207 to 208 °C; with `Cc1ccc(C(=O)N[C@H](Cc2cccc(OC(F)(F)C(F)F)c2)[C@@H](O)c2ccc(F)cc2)c2c1CCCC=C2` (racemic) [Example 318, N-[(1RS,2SR)-2-(4-fluorophenyl)-2-hydroxy-1-[3-(1,1,2,2-tetrafluoroethoxy)benzyl]ethyl]-4-methyl-6,7-dihydro-5H-benzo[a]cycloheptene-1-carboxamide], 177 to 178 °C; with `CC(C)(C)OC(=O)N[C@H](Cc1cc(OC(F)(F)C(F)F)no1)[C@@H](O)c1ccc(F)cc1` (racemic) [Example 319, tert-butyl N-[(1RS,2SR)-2-(4-fluorophenyl)-2-hydroxy-1-[[3-(1,1,2,2-tetrafluoroethoxy)isooxazol-5-yl]methyl]ethyl]carbamate], 114 to 115 °C.

As to `O=C(N[C@H](Cc1cc(OC(F)(F)C(F)F)no1)[C@@H](O)c1ccc(F)cc1)c1cccc2c1C=CCCC2` (racemic) [Example 320, N-[(1RS,2SR)-2-(4-fluorophenyl)-2-hydroxy-1-[[3-(1,1,2,2-tetrafluoroethoxy)isoxazol-5-yl]methyl]ethyl]-6,7-dihydro-5H-benzo[a]cycloheptene-1-carboxamide], the melting point is 127 to 128 °C. In turn, `CC(C)(C)OC(=O)Nc1ccc([C@H](O)[C@@H](Cc2cccc(OC(F)(F)C(F)F)c2)NC(=O)c2cccc3c2C=CCCC3)cc1` (racemic) [Example 321, N-[(1RS,2SR)-2-[4-[(tert-butoxycarbonyl)amino]phenyl]-2-hydroxy-1-[3-(1,1,2,2-tetrafluoroethoxy)benzyl]ethyl]-6,7-dihydro-5H-benzo[a]cycloheptene-1-carboxamide] showed a melting point of 153 to 156 °C. In the case of `Nc1ccc([C@H](O)[C@@H](Cc2cccc(OC(F)(F)C(F)F)c2)NC(=O)c2cccc3c2C=CCCC3)cc1` (racemic) [Example 322, N-[(1RS,2SR)-2-(4-aminophenyl)-2-hydroxy-1-[3-(1,1,2,2-tetrafluoroethoxy)benzyl]ethyl]-6,7-dihydro-5H-benzo[a]cycloheptene-1-carboxamide], the melting point fell in the range of 153 to 155 °C. In turn, `CC(C)c1cccc(C[C@@H](NC(=O)c2cccc3c2C=CCCC3)[C@@H](O)c2ccc(F)cc2)c1` (racemic) [Example 323, N-[(1RS,2SR)-2-(4-fluorophenyl)-2-hydroxy-1-(3-isopropylbenzyl)ethyl]-6,7-dihydro-5H-benzo[a]cycloheptene-1-carboxamide] came in with a melting point of 165 to 167 °C.

`CC(C)c1cccc(C[C@@H](NC(=O)c2ccc(F)c3ccccc23)[C@@H](O)c2ccc(F)cc2)c1` (racemic) [Example 324, 4-fluoro-N-[(1RS,2SR)-2-(4-fluorophenyl)-2-hydroxy-1-(3-isopropylbenzyl)ethyl]naphthalene-1-carboxamide]: the melting point was in the range of 159 to 160 °C. The compound `CC(C)(C)OC(=O)N[C@H](Cc1cccc(OC(F)(F)C(F)F)c1)[C@@H](O)c1ccc(C=O)cc1` (racemic) [Example 325, tert-butyl N-[(1RS,2SR)-2-(4-formylphenyl)-2-hydroxy-1-[3-(1,1,2,2-tetrafluoroethoxy)benzyl]ethyl]carbamate] displayed a melting point of 140 to 142 °C. As to `O=Cc1ccc([C@H](O)[C@@H](Cc2cccc(OC(F)(F)C(F)F)c2)NC(=O)c2cccc3c2C=CCCC3)cc1` (racemic) [Example 326, N-[(1RS,2SR)-2-(4-formylphenyl)-2-hydroxy-1-[3-(1,1,2,2-tetrafluoroethoxy)benzyl]ethyl]-6,7-dihydro-5H-benzo[a]cycloheptene-1-carboxamide], the melting point was 164 to 166 °C.
